Data reported in US8088731B2, “Use of GLP-1 compound for treatment of critically ill patients” (Novo Nordisk A/S, priority 2002, dated 2012).

What was measured:
[1] = tested on: subjects with type 2 diabetes; assay: 12 week randomised, double-blind, dose-response, placebo controlled and open label glimepiride study of glucose lowering effect; format: in vivo, human; conditions: 12 weeks
Description: The dose of glimepiride was adjusted during the first 4 weeks based on glycaemic control with a treatment target of fasting serum glucose <7 mM, with a dose not exceeding 4 mg/day. Results

[2] = tested on: subjects with type 2 diabetes; assay: Graded glucose infusion crossover study of beta cell sensitivity to glucose after a single dose; format: in vivo, human; conditions: single dose 7.5 μg/kg
Description: Using a graded glucose infusion protocol with plasma glucose levels matched over the range of 5 to 12 mmol/L beta cell sensitivity was assessed. Insulin secretion rates (ISR) were estimated by deconvolution of circulating C-peptide concentrations. Findings were compared to responses of 10 healthy, nondiabetic volunteers to the same glucose infusion protocol.

Structure (SMILES)	subjects that reported any hypoglycaemic episode ([1]; glimepiride group) [%]	reduction compared to placebo on FSG ([1]; glimepiride p.o. once daily, open-label, titrated, not exceeding 4 mg/day) [mM]	reduction compared to placebo on HbA1c ([1]; glimepiride p.o. once daily, open-label, titrated, not exceeding 4 mg/day, p=0.0001) [%]	mean serum fasting glucose decrease compared with placebo ([1]; 0.60 mg once daily s.c., p<0.0001) [mmol/L]	mean decrease compared to placebo in HbA1c ([1]; 0.60 mg once daily s.c., p=0.0002) [percentage points]	mean decrease compared to placebo in HbA1c ([1]; 0.75 mg once daily s.c., p<0.0001) [percentage points]	mean serum fasting glucose decrease compared with placebo ([1]; 0.75 mg once daily s.c., p=0.0003) [mmol/L]	subjects that reported any hypoglycaemic episode ([1]; two highest dose groups (0.60 and 0.75 mg)) [%]	C-peptide levels compared to placebo ([2]; type 2 diabetes subjects)	hypoglycemic events ([2]; type 2 diabetes subjects)	insulin levels compared to placebo ([2]; type 2 diabetes subjects)	slope of ISR vs. plasma glucose ([2]; type 2 diabetes subjects, graded glucose infusion, p<0.014 vs placebo)	insulin secretion at low glucose levels ([2]; versus non-diabetic controls)
CCC1=C(C)CN(C(=O)NCCc2ccc(S(=O)(=O)NC(=O)N[C@H]3CC[C@H](C)CC3)cc2)C1=O [glimepiride, reference compound]	31	-2.6	0.74	–	–	–	–	–	–	–	–	–	–
CCCCCCCCCCCCCCCC(=O)N[C@@H](CCC(=O)NCCCC[C@H](NC(=O)[C@H](C)NC(=O)[C@H](C)NC(=O)[C@H](CCC(N)=O)NC(=O)CNC(=O)[C@H](CCC(=O)O)NC(=O)[C@H](CC(C)C)NC(=O)[C@H](Cc1ccc(O)cc1)NC(=O)[C@H](CO)NC(=O)[C@H](CO)NC(=O)[C@@H](NC(=O)[C@H](CC(=O)O)NC(=O)[C@H](CO)NC(=O)[C@@H](NC(=O)[C@H](Cc1ccccc1)NC(=O)[C@@H](NC(=O)CNC(=O)[C@H](CCC(=O)O)NC(=O)[C@H](C)NC(=O)[C@@H](N)Cc1cnc[nH]1)[C@@H](C)O)[C@@H](C)O)C(C)C)C(=O)N[C@@H](CCC(=O)O)C(=O)N[C@@H](Cc1ccccc1)C(=O)N[C@H](C(=O)N[C@@H](C)C(=O)N[C@@H](Cc1c[nH]c2ccccc12)C(=O)N[C@@H](CC(C)C)C(=O)N[C@H](C(=O)N[C@@H](CCCNC(=N)N)C(=O)NCC(=O)N[C@@H](CCCNC(=N)N)C(=O)NCC(=O)O)C(C)C)[C@@H](C)CC)C(=O)O [NN2211, Arg^34, Lys^26(N^ε-(γ-Glu(N^α-hexadecanoyl)))-GLP-1(7-37)]	–	–	–	2.14	0.70	0.75	1.82	7	increased	No hypoglycemic events occurred	increased	1.26±0.36 pmol*L/(min*mmol*kg)	comparable to the non-diabetic controls
